In patent US7579371B2, “Methods of using [3.2.0] heterocyclic compounds and analogs thereof” (Nereus Pharmaceuticals, Inc., priority 2004, dated 2009):
Values joined by “and” are separate entries in the source; they are usually repeats but may differ in a detail not shown here. Identical values can stand only once.

Legend:
[1] = biological target: T1, proteasome chymotrypsin-like activity in packed whole blood lysate (Mus musculus, UniProt O55234); experiment: Proteasome activity in packed whole blood lysate (PWBL) of treated mice; type: in vivo; settings: 90 minutes
T1 construct: The supernatant (Packed Whole Blood Lysate, PWBL) was transferred to a fresh tube; from tissue; host or cells: packed whole blood cells of Swiss-Webster mice (lysate)
Experimental: In brief, frozen whole blood samples were thawed on ice for one hour, and resuspended in 700 μL of ice cold 5 mM EDTA, pH 8.0 in order to lyse the cells by hypotonic shock. This represents approximately 2-3 times the volume of the packed whole blood cells. Lysis was allowed to proceed for one hour, and the cellular debris was removed by centrifugation at 14,000×g for 10 minutes. The supernatant (Packed Whole Blood Lysate, PWBL) was transferred to a fresh tube, and the pellet discarded. Protein concentration of the PWBL was determined by BCA assay (Pierce) using BSA as a standard.
Proteasome activity was determined by measuring the hydrolysis of a fluorogenic substrate specific for the chymotrypsin-like activity of proteasomes (suc-LLVY-AMC, Bachem Cat. I-1395). […] Hydrolysis of the substrate results in the release of free AMC, which was measured fluorometrically by using λex=390 nm and λem=460 nm. The rate of hydrolysis in this system is linear for at least one hour. The hydrolysis rate of each sample is then normalized to relative fluorescent units per milligram of protein (RFU/mg).
The vehicle control consisted of 2% DMSO in 10% solutol. […] Packed whole blood cells were collected by centrifugation, washed with PBS, and re-centrifuged. All samples were stored at −80° C. prior to the evaluation of the proteasome activity. […]

Jurkat cells = experiment: Cytotoxicity against Jurkat cells; type: cell-based, human
CYP2D6 = CYP2D6 (Homo sapiens, UniProt P10635); experiment: Preliminary P450 inhibition screen; settings: tested at 10 μM
Text: (§1) These studies consisted of solubility assessment, LogD^7.4 determination and a preliminary screen to detect cytochrome P450 enzyme inhibition.

CYP3A4 = CYP3A4 (Homo sapiens, UniProt P08684); experiment: Preliminary P450 inhibition screen; settings: tested at 10 μM
Text: as §1

CYP2C19 = CYP2C19 (Homo sapiens, UniProt P33261); experiment: Preliminary P450 inhibition screen; settings: tested at 10 μM
Text: as §1

CYP2C9 = CYP2C9 (Homo sapiens, UniProt P11712); experiment: Preliminary P450 inhibition screen; settings: tested at 10 μM
Text: as §1

CYP1A2 = CYP1A2 (Homo sapiens, UniProt P05177); experiment: Preliminary P450 inhibition screen; settings: tested at 10 μM
Text: as §1

PC-3 = experiment: Cell growth inhibition assay (resazurin, 48 h)
HEK293 = experiment: Cell growth inhibition assay (resazurin, 48 h); type: cell-based; settings: Homo sapiens, HEK293, 48 h
RPMI 8226 cells = experiment: PARP and Pro-Caspase 3 cleavage in RPMI 8226 cells (western blot); type: cell-based, human; settings: 100 nM; 0, 8 or 24 hours
Experimental: Total protein lysates were made and 20 μg of the lysates were then resolved under reducing/denaturing conditions and blotted onto nitrocellulose. The blots were then probed with anti-PARP or anti-caspase 3 antibodies followed by stripping and reprobing with an anti-actin antibody.
25 μg of the lysates were then resolved under reducing/denaturing conditions and blotted onto nitrocellulose. The blots were then probed with anti-PARP or anti-caspase 3 antibodies followed by stripping and reprobing with an anti-actin antibody.

RPMI 8226 = experiment: Cell growth inhibition assay (resazurin, 48 h); settings: for % cytotoxicity: RPMI 8226
Experimental: RPMI 8226 (CCL-155), HT-29 (HTB-38), and B16-F10 (CRL-6475) cells were purchased from ATCC. RPMI 8226 cells were maintained in RPMI 1640 media supplemented with 10% (v/v) FBS, 2 mM L-glutamine, 1 mM sodium pyruvate and Penicillin/Streptomycin at 100 IU/ml and 100 μg/ml, respectively. HT-29 cells were maintained in McCoys 5A supplemented with 10% (v/v) FBS, 2 mM L-glutamine, 1 mM sodium pyruvate, 1% (v/v) non-essential amino acids, 10 mM HEPES and Penicillin/Streptomycin at 100 IU/ml and 100 μg/ml, respectively. B16-F10 cells were maintained in DMEM supplemented with 10% (v/v) FBS, 2 mM L-glutamine, 10 mM HEPES and Penicillin/Streptomycin at 100 IU/ml and 100 μg/ml, respectively.
RPMI 8226 cells were seeded at 2×10^4 cells/well in 90 μl RPMI media containing 10% (v/v) FBS or 1% (v/v) FBS into 96 well black-walled, clear-bottom tissue culture plates. […] Formulae II-16, II-17 and Formula II-18 were serially diluted in media containing 1% or 10% FBS and added in triplicate to the test wells. […] The final concentration of Formula II-18 ranged from 2 μM to 630 pM.

PARP = PARP cleavage in Jurkat cells (western blot); type: cell-based, human; settings: 100 nM Salinosporamide A or 350 nM Staurosporine
HL-60 = experiment: cells; settings: Homo sapiens, HL-60, 48 h
OVCAR-3 = experiment: Cell growth inhibition assay (resazurin, 48 h); type: cell-based, human; settings: OVCAR-3, 48 h
NF-κB/Luc 293 cells = experiment: Viability of NF-κB/Luc 293 cells (resazurin, 24 hr); type: cell-based, human; settings: ~7 nM
multiple myeloma cells = experiment: Transwell migration assay, VEGF-induced migration; type: cell-based
Experimental: The compounds disclosed herein inhibit angiogenesis. […] The other compounds disclosed herein are tested in a transwell mighration assay and inhibit migration.

MES-SA/Dx5 = experiment: Cell growth inhibition assay (resazurin, 48 h)
Experimental: Concentrations ranging from 6.32 μM to 2 nM were tested for II-2 and II-4.
The multidrug resistant MES-SA/Dx5 tumor cell line was derived from the human uterine sarcoma MES-SA tumor cell line and expresses elevated P-Glycoprotein (P-gp), an ATP dependent efflux pump.

T1 sequence (O55234 60-264): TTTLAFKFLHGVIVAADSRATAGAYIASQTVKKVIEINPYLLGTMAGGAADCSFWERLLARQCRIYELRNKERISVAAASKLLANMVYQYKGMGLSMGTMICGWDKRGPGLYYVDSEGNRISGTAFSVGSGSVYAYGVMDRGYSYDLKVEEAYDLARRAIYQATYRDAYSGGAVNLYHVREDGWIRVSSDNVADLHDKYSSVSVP
Sequence of CYP2C19 (P33261 whole entry): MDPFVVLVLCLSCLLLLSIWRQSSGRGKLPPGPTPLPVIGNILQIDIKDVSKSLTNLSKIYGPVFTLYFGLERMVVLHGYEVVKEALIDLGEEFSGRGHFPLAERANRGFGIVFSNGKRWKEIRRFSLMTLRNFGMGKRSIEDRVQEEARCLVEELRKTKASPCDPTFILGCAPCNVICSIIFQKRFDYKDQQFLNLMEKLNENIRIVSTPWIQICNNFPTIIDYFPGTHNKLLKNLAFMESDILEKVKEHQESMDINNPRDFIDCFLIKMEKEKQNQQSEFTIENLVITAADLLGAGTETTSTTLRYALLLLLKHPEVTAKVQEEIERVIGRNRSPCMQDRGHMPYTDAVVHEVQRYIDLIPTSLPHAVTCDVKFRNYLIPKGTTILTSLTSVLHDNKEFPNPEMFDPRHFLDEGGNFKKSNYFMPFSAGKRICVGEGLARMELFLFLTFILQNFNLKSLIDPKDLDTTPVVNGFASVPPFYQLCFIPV
Sequence of CYP2D6 (P10635 whole entry): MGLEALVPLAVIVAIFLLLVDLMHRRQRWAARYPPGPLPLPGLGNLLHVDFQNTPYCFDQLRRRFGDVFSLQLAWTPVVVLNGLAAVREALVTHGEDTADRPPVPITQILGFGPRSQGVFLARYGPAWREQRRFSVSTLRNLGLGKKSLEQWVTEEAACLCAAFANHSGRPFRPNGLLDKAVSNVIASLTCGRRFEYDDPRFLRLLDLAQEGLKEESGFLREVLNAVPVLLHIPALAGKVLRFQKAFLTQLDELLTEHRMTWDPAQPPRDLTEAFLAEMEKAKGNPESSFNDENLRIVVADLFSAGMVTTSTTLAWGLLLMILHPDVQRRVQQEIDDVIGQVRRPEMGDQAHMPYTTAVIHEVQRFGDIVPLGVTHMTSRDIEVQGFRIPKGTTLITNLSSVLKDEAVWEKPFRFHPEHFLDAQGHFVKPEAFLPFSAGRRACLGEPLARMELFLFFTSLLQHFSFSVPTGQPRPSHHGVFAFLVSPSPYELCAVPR
Sequence of CYP2C9 (P11712 whole entry): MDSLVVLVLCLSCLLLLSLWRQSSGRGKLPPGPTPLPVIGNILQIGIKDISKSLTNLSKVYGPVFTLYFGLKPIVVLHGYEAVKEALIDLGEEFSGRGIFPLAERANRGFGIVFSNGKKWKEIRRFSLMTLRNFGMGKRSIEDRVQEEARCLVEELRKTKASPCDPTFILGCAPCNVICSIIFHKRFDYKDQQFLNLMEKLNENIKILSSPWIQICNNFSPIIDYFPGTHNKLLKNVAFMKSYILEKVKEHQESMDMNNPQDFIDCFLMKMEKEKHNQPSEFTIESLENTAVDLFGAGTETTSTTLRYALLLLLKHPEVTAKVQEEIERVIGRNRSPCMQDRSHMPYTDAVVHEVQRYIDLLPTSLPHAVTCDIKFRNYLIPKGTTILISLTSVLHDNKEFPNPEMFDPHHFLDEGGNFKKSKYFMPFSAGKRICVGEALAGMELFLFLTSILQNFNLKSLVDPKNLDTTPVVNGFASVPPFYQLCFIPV
Sequence of CYP3A4 (P08684 whole entry): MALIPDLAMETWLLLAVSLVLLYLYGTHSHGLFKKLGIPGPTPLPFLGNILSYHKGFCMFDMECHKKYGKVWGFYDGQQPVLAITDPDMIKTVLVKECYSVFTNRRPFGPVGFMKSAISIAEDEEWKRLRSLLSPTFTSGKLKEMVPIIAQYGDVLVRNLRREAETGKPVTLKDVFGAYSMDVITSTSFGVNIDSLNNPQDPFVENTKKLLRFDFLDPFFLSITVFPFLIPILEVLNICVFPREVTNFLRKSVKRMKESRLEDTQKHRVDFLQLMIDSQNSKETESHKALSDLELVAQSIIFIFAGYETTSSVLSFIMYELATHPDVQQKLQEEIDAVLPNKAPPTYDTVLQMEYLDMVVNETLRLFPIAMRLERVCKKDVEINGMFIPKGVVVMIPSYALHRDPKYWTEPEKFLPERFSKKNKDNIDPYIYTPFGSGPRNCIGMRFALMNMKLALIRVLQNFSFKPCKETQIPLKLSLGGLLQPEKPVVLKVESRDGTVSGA
Sequence of CYP1A2 (P05177 whole entry): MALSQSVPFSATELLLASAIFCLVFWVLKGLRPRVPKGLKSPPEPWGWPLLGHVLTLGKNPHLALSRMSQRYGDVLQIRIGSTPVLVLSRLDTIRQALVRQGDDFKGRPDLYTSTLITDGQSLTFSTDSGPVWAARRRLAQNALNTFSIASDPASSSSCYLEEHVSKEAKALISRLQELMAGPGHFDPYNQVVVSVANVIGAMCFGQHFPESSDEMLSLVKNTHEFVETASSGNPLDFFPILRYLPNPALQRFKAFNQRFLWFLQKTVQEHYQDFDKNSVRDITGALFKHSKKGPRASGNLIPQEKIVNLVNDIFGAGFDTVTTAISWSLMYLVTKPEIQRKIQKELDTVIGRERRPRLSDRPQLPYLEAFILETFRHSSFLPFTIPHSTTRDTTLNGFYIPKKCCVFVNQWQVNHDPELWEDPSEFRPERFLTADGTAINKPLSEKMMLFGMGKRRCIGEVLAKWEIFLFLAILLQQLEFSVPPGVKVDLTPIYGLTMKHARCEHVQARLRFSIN

C[C@@]12OC(=O)[C@]1([C@@H](O)[C@@H]1C=CCCC1)NC(=O)[C@@H]2CCCl [Formula II-16, Salinosporamide A]
proteasomal activity in PWBL after oral administration [1]: active upon oral administration
% max cell kill (Jurkat cells): 97%
EC50 (Jurkat cells; Homo sapiens): 10 nM
inhibition of CYP2D6 (CYP2D6): 19%
inhibition of CYP3A4 (CYP3A4): 6%
inhibition of CYP2C19 (CYP2C19): 22%
inhibition of CYP2C9 (CYP2C9): 6%
inhibition of CYP1A2 (CYP1A2): 3%
% cytotoxicity (PC-3; PC-3): 88% and 89%
EC50 (PC-3; PC-3, 48 h): 64 ± 26 nM
EC50 (HEK293): 47 nM
cleavage of PARP and Pro-caspase 3 (RPMI 8226 cells): cleavage of PARP and Pro-caspase 3 in a time-dependent manner
EC50 (RPMI 8226; Homo sapiens, RPMI-8226, 48 h, RPMI 8226, 48 h): 8.6 ± 1.9 nM
% cytotoxicity (RPMI 8226; listed as II-16): 94 ± 0%
% cytotoxicity (RPMI 8226; listed as Salinosporamide A): 94 ± 1%
cleavage of PARP (PARP): cleavage of PARP within the Jurkat cells in a time-dependent fashion
EC50 (HL-60): 27 nM
EC50 (OVCAR-3; Homo sapiens): 69 nM
EC50 (OVCAR-3): 49 ± 31 nM
cell viability at the NF-κB EC50 concentration (NF-κB/Luc 293 cells): did not affect cell viability
VEGF-induced migration of multiple myeloma cells (multiple myeloma cells): blocked
EC50 (RAW264.7 cells): 3.6 nM
increase in the viability of LeTx-treated cells compared to LeTx treatment alone (RAW264.7 cells): 10 fold
EC50 (MES-SA/Dx5; Homo sapiens, MES-SA/Dx5, 48 h): 23 ± 1 nM
% cytotoxicity (MES-SA/Dx5; MES-SA/Dx5): 92 ± 2%
